In publication doi:10.1101/2022.02.10.480023v1 (biorxiv, 2022):

Molecular target: T1, AbDHDPS (Acinetobacter baumannii, UniProt D0CFC3)
T1 sequence (D0CFC3 1-297): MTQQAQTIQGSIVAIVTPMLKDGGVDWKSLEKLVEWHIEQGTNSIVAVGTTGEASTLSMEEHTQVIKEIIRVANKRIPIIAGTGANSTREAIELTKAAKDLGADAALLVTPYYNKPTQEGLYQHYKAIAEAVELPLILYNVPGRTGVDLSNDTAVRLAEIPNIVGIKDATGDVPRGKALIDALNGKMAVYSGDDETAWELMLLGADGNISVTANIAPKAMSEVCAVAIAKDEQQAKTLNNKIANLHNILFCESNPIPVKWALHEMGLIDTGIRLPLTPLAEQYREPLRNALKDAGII
Test: DHDPS-DHDPR coupled assay, NADPH oxidation at […] nm
Type: biochemical

- IC50: 35 µM
SMILES: CS(=O)(=O)NNc1ccccc1 [N’-phenylmethanesulfonohydrazide]
